Patent US20250171438A1 (Agios Pharmaceuticals, Inc., priority 2022, published 2025)

These compounds were tested against T1, human PAH with the R408W mutation (Homo sapiens, UniProt P00439, R408W) (assay: Cell Based Phenylalanine Flux Assay). Conditions: A375 cells expressing human R408W PAH; 24 hrs compound incubation; 13C-Tyrosine by LC-MS; average where tested multiple times; read-out: AC50.
T1 construct: expressed in transfected cells
T1 sequence (P00439 1-452 R408W): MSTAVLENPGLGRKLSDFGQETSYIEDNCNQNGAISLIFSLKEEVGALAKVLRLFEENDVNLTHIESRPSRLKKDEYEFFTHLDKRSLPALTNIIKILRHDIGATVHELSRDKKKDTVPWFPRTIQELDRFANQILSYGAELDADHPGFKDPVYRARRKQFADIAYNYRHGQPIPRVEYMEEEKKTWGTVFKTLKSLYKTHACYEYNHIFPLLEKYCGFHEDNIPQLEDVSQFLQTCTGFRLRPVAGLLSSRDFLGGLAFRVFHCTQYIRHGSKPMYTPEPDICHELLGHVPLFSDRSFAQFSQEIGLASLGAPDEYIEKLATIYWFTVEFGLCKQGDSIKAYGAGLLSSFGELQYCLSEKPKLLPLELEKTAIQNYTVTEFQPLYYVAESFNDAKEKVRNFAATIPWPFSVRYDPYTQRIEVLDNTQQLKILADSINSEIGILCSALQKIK
Protocol: Compounds were resuspended in DMSO, and 2-fold serial dilutions were performed to generate a 10-point dose curve. Compounds were added to plated cells in a total volume of 100 pal, and a final DMSO concentration of 0.5%. Each compound was tested in duplicate. Following compound addition, cells were placed in a 5% CO2, 37° C. tissue culture incubator for 24 hrs. After the incubation period, 20 μM sepiapterin and 800 μM 13C9,15N-Phenylalanine were added. After 4 hours, cell media was removed. An aliquot of 10 μl of cell media was combined with 200 μl of extraction buffer (80% acetonitrile/20% H2O) for each well. Determination of ^13C-Tyrosine concentration was assessed by liquid chromatography mass spectrometry.
Where a compound was tested multiple times, the average value of the tests is reported.
In the case of Cn1ncnc1C(=O)N1CCc2[nH]cnc2[C@@H]1c1nc2c(C(F)(F)F)cccc2s1 [Example 2102, (R)-(1-methyl-1H-1,2,4-triazol-5-yl)(4-(4-(trifluoromethyl)benzo[d]thiazol-2-yl)-6,7-dihydro-1H-imidazo[4,5-c]pyridin-5(4H)-yl)methanone], the AC50 is reported as 1000 to 5000 nM.
Work on O=C(c1nnc(-c2ccc(F)c(F)c2)o1)N1CCc2[nH]cnc2[C@@H]1c1nc2ccccc2s1 [Example 1802, (R)-(4-(benzo[d]thiazol-2-yl)-6,7-dihydro-1H-imidazo[4,5-c]pyridin-5(4H)-yl)(5-(3,4-difluorophenyl)-1,3,4-oxadiazol-2-yl)methanone] yielded an AC50 of 1000 to 5000 nM.
Compound O=C(c1ocnc1C(F)(F)F)N1CCc2[nH]cnc2[C@H]1c1nc2ccccc2[nH]1 [Example 994, (S)-(4-(1H-benzo[d]imidazol-2-yl)-6,7-dihydro-1H-imidazo[4,5-c]pyridin-5(4H)-yl)(4-(trifluoromethyl)oxazol-5-yl)methanone] has an AC50 of under 500 nM.
For Cn1nc(Cl)cc1C(=O)N1CCc2[nH]cnc2[C@H]1c1nc2ccccc2s1 [Example 1923], the AC50 was under 500 nM.
Work on O=C(C1CN(c2ccc(F)cn2)C1)N1CCc2[nH]cnc2[C@H]1c1nc2ccccc2s1 [Example 1837] yielded an AC50 of 1000 to 5000 nM.
Work on CC(C)(C)CCC(=O)N1CCc2[nH]cnc2[C@@H]1c1nc2ccc(Br)cc2[nH]1 [Example 943, (R)-1-(4-(6-bromo-1H-benzo[d]imidazol-2-yl)-6,7-dihydro-1H-imidazo[4,5-c]pyridin-5(4H)-yl)-4,4-dimethylpentan-1-one] yielded an AC50 of 1000 to 5000 nM.
O=C(CCC1CC1)N1CCc2[nH]cnc2[C@H]1c1nc2ccc(Br)cc2s1 [Example 1145, (S)-1-(4-(6-bromobenzo[d]thiazol-2-yl)-6,7-dihydro-1H-imidazo[4,5-c]pyridin-5(4H)-yl)-3-cyclopropylpropan-1-one] was tested, and the AC50 was under 500 nM.
In the case of O=C(N1CCc2[nH]cnc2[C@@H]1c1nc2ccccc2s1)C(F)(F)C1CC1 [Example 1254, (R)-1-(4-(benzo[d]thiazol-2-yl)-6,7-dihydro-1H-imidazo[4,5-c]pyridin-5(4H)-yl)-2-cyclopropyl-2,2-difluoroethanone], the AC50 is reported as over 5000 nM.
For CC(C)(O)c1nc(Br)c(C(=O)N2CCc3[nH]cnc3[C@H]2c2nc3ccccc3s2)o1 [Example 2089], the AC50 was under 500 nM.
O=C(c1cnc(-c2ccccn2)o1)N1CC2(CC2)c2[nH]cnc2[C@@H]1c1nc2ccccc2s1 [Example 1654, (R)-(4′-(benzo[d]thiazol-2-yl)spiro[cyclopropane-1,7′-imidazo[4,5-c]pyridin]-5′(1′H,4′H,6′H)-yl)(2-(pyridin-2-yl)oxazol-5-yl)methanone] gave an AC50 of 1000 to 5000 nM.
Cc1nc(C(C)(C)O)oc1C(=O)N1CCc2[nH]cnc2[C@H]1c1nc2ccccc2s1 [Example 1469] gave an AC50 of under 500 nM.
Compound CC(F)(F)c1ncoc1C(=O)N1CCc2[nH]cnc2[C@@H]1c1nc2c(F)cccc2s1 [Example 2008, (R)-(4-(1,1-difluoroethyl)oxazol-5-yl)(4-(4-fluorobenzo[d]thiazol-2-yl)-6,7-dihydro-1H-imidazo[4,5-c]pyridin-5(4H)-yl)methanone] has an AC50 of 1000 to 5000 nM.
In the case of O=C(c1cnn(CC(F)F)c1Cl)N1CCc2[nH]cnc2[C@@H]1c1nc2c(F)cccc2s1 [Example 2018, (R)-(5-chloro-1-(2,2-difluoroethyl)-1H-pyrazol-4-yl)(4-(4-fluorobenzo[d]thiazol-2-yl)-6,7-dihydro-1H-imidazo[4,5-c]pyridin-5(4H)-yl)methanone], the AC50 is reported as 1000 to 5000 nM.
For CC(C)n1ncc(C(=O)N2CCc3[nH]cnc3[C@@H]2c2nc3c(F)cccc3s2)c1Br [Example 1954, (R)-(5-bromo-1-isopropyl-1H-pyrazol-4-yl)(4-(4-fluorobenzo[d]thiazol-2-yl)-6,7-dihydro-1H-imidazo[4,5-c]pyridin-5(4H)-yl)methanone], the AC50 was 1000 to 5000 nM.
O=C(c1sc(N2CCOCC2)nc1C(F)(F)F)N1CCc2[nH]cnc2[C@@H]1c1nc2c(F)cccc2s1 [Example 1634, (R)-(4-(4-fluorobenzo[d]thiazol-2-yl)-6,7-dihydro-1H-imidazo[4,5-c]pyridin-5(4H)-yl)(2-morpholino-4-(trifluoromethyl)thiazol-5-yl)methanone] showed an AC50 of 500 to 1000 nM.
O=C(N1CCc2[nH]cnc2[C@H]1c1nc2ccccc2s1)C(F)(F)C1(O)CCC1 [Example 1687] was tested, and the AC50 was under 500 nM.
With O=C(c1nnc(-c2cn[nH]c2)o1)N1CCc2[nH]cnc2[C@@H]1c1nc2ccccc2s1 [Example 1922, (R)-(5-(1H-pyrazol-4-yl)-1,3,4-oxadiazol-2-yl)(4-(benzo[d]thiazol-2-yl)-6,7-dihydro-1H-imidazo[4,5-c]pyridin-5(4H)-yl)methanone] the AC50 was 1000 to 5000 nM.
With O=C(c1cn(CC2CC2)nc1Cl)N1CCc2[nH]cnc2[C@@H]1c1nc2c(F)cccc2s1 [Example 1984, (R)-(3-chloro-1-(cyclopropylmethyl)-1H-pyrazol-4-yl)(4-(4-fluorobenzo[d]thiazol-2-yl)-6,7-dihydro-1H-imidazo[4,5-c]pyridin-5(4H)-yl)methanone] the AC50 was 1000 to 5000 nM.
Work on CC(O)(c1nc(C(F)(F)F)c(C(=O)N2CCc3[nH]cnc3[C@@H]2c2nc3ccccc3s2)o1)C1CC1 (single isomer, unassigned) [Example 1563] yielded an AC50 of under 500 nM.
For O=C(CC1CC1)N1CCc2[nH]cnc2[C@@H]1c1nc2ccc(Cl)cc2[nH]1 [Example 953, (R)-1-(4-(6-chloro-1H-benzo[d]imidazol-2-yl)-6,7-dihydro-1H-imidazo[4,5-c]pyridin-5(4H)-yl)-2-cyclopropylethanone], the AC50 was 1000 to 5000 nM.
In the case of Cn1cc(-c2ncc(C(=O)N3CCc4[nH]cnc4[C@H]3c3nc4c(F)cccc4s3)o2)cn1 [Example 1346, (S)-(4-(4-fluorobenzo[d]thiazol-2-yl)-6,7-dihydro-1H-imidazo[4,5-c]pyridin-5(4H)-yl)(2-(1-methyl-1H-pyrazol-4-yl)oxazol-5-yl)methanone], the AC50 is reported as 500 to 1000 nM.

Same assay, conditions: A375 cells expressing human R408W PAH; 24 hrs with compound; 13C-Tyrosine by LC-MS; average where tested multiple times; read-out: AC50
O=C(c1cnn2cc(Br)ccc12)N1CCc2[nH]cnc2C1c1nc2ccc(F)cc2s1 (stereo not shown) was tested, and the AC50 was over 5000 nM.
For Cn1nc(N)cc1C(=O)N1CCc2[nH]cnc2C1c1nc2c(F)cccc2s1 (stereo not shown), the AC50 was over 5000 nM.
O=C(Cc1nc(C(F)(F)F)cs1)N1CCc2[nH]cnc2C1c1nc2ccc(F)cc2s1 (stereo not shown) showed an AC50 of over 5000 nM.
O=C(Cc1nccs1)N1CCc2[nH]cnc2C1c1nc2cccc(F)c2s1 (stereo not shown) was tested, and the AC50 was over 5000 nM.
Cn1ncnc1C(=O)N1CCc2[nH]cnc2[C@@H]1c1nc2c(F)cccc2s1 (single isomer, unassigned) showed an AC50 of over 5000 nM.
O=C(c1cc2ccccn2c1)N1CCc2[nH]cnc2C1c1nc2ccccc2s1 (stereo not shown) showed an AC50 of over 5000 nM.
With O=C(c1cnn2ccc(F)cc12)N1CCc2[nH]cnc2C1c1nc2ccc(Br)cc2[nH]1 (stereo not shown) the AC50 was over 5000 nM.
For CC(C)(O)c1noc(C(=O)N2CCc3[nH]cnc3C2c2nc3ccccc3s2)n1 (stereo not shown), the AC50 was over 5000 nM.
With O=C(c1nc(C(F)(F)F)co1)N1CCc2[nH]cnc2C1c1nc2ccccc2s1 (stereo not shown) the AC50 was 1000 to 5000 nM.
Compound O=C(c1nc2cc(F)ccc2s1)N1CCc2[nH]cnc2[C@H]1c1nc2ccccc2[nH]1 [(S)-(4-(1H-benzo[d]imidazol-2-yl)-6,7-dihydro-1H-imidazo[4,5-c]pyridin-5(4H)-yl)(5-fluorobenzo[d]thiazol-2-yl)methanone] has an AC50 of 1000 to 5000 nM.
O=C(N1CCC(c2ccccc2)C1)N1CCc2[nH]cnc2C1c1nc2ccccc2s1 (stereo not shown) showed an AC50 of over 5000 nM.
For O=C(C1CC1)N1CCc2[nH]cnc2C1c1nc2ccc(F)cc2s1 (stereo not shown), the AC50 was 1000 to 5000 nM.
O=C(Cc1nccs1)N1CCc2[nH]cnc2[C@@H]1c1nc2ccc(Br)cc2[nH]1 (single isomer, unassigned) was tested, and the AC50 was over 5000 nM.
